Measured values as given in patent US5783568A, “Methods for treating cancer and other cell proliferative diseases” (Sugen, Inc., priority 1994, dated 1998).
“Also recorded” adds a separate entry of the source.

Key:
sFGFR = experiment: aFGF/sFGFR/heparin complex formation by non-denaturing PAGE; assay type: binding, human; conditions: aFGF alone or heparin alone
Protocol: aFGF, heparin or a mixture of aFGF and heparin were added to sFGFR. Free aFGF and sFGFR were separated from the complexes by gel-filtration, and fractions containing the complexes were analyzed by non-denaturing PAGE. Proteins were visualized by staining with Coomasie Brilliant blue. Various oligomerization states of aFGF/sFGFR are detected only in the presence of heparin.
aFGF alone, or a pre-incubated mixture of heparin and aFGF (molar ratio 1:10) was added to a solution containing sFGFR. The mixtures were then incubated for 20 min at room temperature in 20 mM Hepes pH 7.5, 200 mM NaCl. Size-exclusion chromatography, using a Superose 12 column (Pharmacia), was then employed to separate free aFGF and sFGFR from the complex that formed. Fractions containing the isolated complexes were pooled, and analyzed by non-denaturing PAGE (4-15% gradient gels), using the Phastsystem (Pharmacia). Gels were stained with Coomassie Blue. In the case of the sFGFR/heparin mixture (FIG. 4, lane 2), heparin was simply added to the sFGFR solution prior to electrophoresis.
The requirement of both heparin and aFGF for the induction of sFGFR dimerization was also confirmed in a second experimental system. sFGFR was incubated with aFGF alone, or with aFGF plus heparin.

FGFR2 (bek) [1] = experiment: Cross-linking (BS^3) of FGF receptors in CHO-K1 cells, receptor dimerization; assay type: cell-based, human; conditions: 0.1 nM aFGF, with or without 50 nM heparin
Protocol: (§1) Parental (lanes 1-4) and mutant CHO cells (lanes 5-8) were incubated with either 50 nM heparin (lanes 2 and 6), 0.1 nM aFGF (lanes 3 and 7), or both (lanes 4 and 8), for 1 hour at 4° C. Cells were then treated with the covalent cross-linking agent BS^3 for […] at room temperature, solubilized and immunoprecipitated with anti-FGFR2 antibodies. The samples were analyzed by a gradient SDS gel (6-8%), transferred to nitrocellulose membranes and probed with anti-FGFR2 antibodies. M--FGFR monomers; D--FGFR dimers.
(§2) Cells grown in fibronectin-coated dishes were starved overnight in F-12 medium containing 0.5% FBS. Cells were then washed with ice-cold binding medium (F-12 medium containing 20 mM Hepes (pH 7.5) and 0.1% BSA), and incubated for 1 hour at 4° C. with either aFGF (0.1 nM), heparin (50 nM), or both. The cells were then washed twice with cold PBS and incubated with 1 mM BS^3 in PBS for 20 minutes at room temperature. The cross-linking reaction was quenched by the addition of 50 mM Tris-HCl and 100 mM glycine for 10 min at room temperature. […]
(§3) Full-length FGFR2 was transfected into two CHO cell lines; wild-type CHO-K1, and the mutant CHO-pgsD-677, which is defective in heparin sulfate expression at its cell-surface (Esko, 1991). […] Cells were then lysed, and immunoprecipitated FGFR2 was analyzed by SDS-PAGE followed by immunoblotting with anti-FGFR2 antibodies.

FGFR2 (bek) [2] = experiment: Cross-linking (BS^3) of FGF receptors in mutant CHO-pgsD-677 cells, receptor dimerization; assay type: cell-based, human; conditions: 0.1 nM aFGF, with or without 50 nM heparin
Protocol: as §1, §2, §3

FGFR2 (bek) [3] = experiment: Tyrosine phosphorylation of FGFR2 in wild-type CHO-K1 cells; assay type: cell-based, human; conditions: 0.1 nM aFGF alone, 5 min at 37° C.
Protocol: (§4) Cells were lysed and the receptor was immunoprecipitated with anti-FGFR2 antibodies. Samples were then analyzed by SDS-PAGE, transferred to nitrocellulose membranes, and tyrosine-phosphorylated proteins were detected by immunoblotting with anti-phosphotyrosine antibodies.
(§5) Wild-type CHO cells (CHO-K1), as well as heparin sulfate-deficient mutant cells (CHO-pgsD-677) which were kindly provided by Prof. J. Esko (Esko, 1991), were cultured in F-12 medium containing 7.5% FBS, 1% Ampicillin/Streptomycin and 1% glutamine. Both CHO cell lines were co-transfected with the wild-type human FGFR2 (bek) DNA in the expression vector pMJ30 (Dionne et al., 1990) (40 μg/10 cm dish) and the pSVneo resistant gene (0.5 mg/10 cm dish), using the calcium phosphate method (Chen and Okayama, 1987). Geneticin (1 mg/ml) resistant clones were screened for expression of the receptor by immunoprecipitation and immunoblotting analysis using anti-FGFR2 antibodies.
(§6) Wild-type and mutant CHO cells were starved overnight in F-12 medium containing 0.5% FBS, and stimulated with either 0.1 nM aFGF, 50 nM heparin, or both, for 5 min at 37° C. Cells were lysed, immunoprecipitated with anti-FGFR2 antibodies and analyzed by immunoblotting with anti-phosphotyrosine (anti-PTyr) antibodies.

FGFR1 (flg) = FGFR1 (flg) expressed in the two CHO cell lines; assay type: cell-based
aFGF [4] = target: T1, aFGF (Homo sapiens, UniProt P05230); experiment: Isothermal titration calorimetry, binding to aFGF; conditions: from ITC stoichiometry
T1 construct: made in house; host or cells: E. coli
T1 sequence (P05230 whole entry): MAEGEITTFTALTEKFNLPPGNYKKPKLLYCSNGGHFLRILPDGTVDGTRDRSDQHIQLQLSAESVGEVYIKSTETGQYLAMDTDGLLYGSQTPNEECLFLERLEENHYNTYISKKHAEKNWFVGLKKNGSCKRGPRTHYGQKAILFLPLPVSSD

[5] = test system: sFGFR (soluble extracellular domain of FGFR2); experiment: Isothermal titration calorimetry, heparin binding to sFGFR; parameters: species or system human; conditions: ITC
[6] = test system: sFGFR (soluble extracellular domain of FGFR2); experiment: Binding of sFGFR to a heparin-sepharose column; parameters: species or system human
FGFR2 (bek) [7] = experiment: Tyrosine phosphorylation of FGFR2 in mutant (HSPG-deficient) CHO-pgsD-677 cells; assay type: cell-based, human; conditions: 0.1 nM aFGF, 50 nM heparin, 5 min at 37° C.
Protocol: as §4, §5, §6

[8] = test system: vascular endothelial cells; conditions: cited from earlier work
[9] = test system: FGFR1 extracellular domain; conditions: Kan et al., 1993; cited from earlier work
aFGF [10] = target: T1, aFGF; conditions: Mach et al., 1993; cited from earlier work

saccharide units of heparin per one bound aFGF (aFGF [4]) | binding of sFGFR to heparin-sepharose column [6] | Substance | mobility of sFGFR in non-denaturing PAGE (sFGFR) | receptor dimerization in CHO-K1 cells (FGFR2 (bek) [1]) | receptor dimerization in mutant CHO-pgsD-677 cells (FGFR2 (bek) [2]) | FGFR2 autophosphorylation in CHO-K1 cells (FGFR2 (bek) [3]) | dimerization and autophosphorylation with FGFR1 (flg) (FGFR1 (flg)) | heparin binding to sFGFR [5] | FGFR2 autophosphorylation in mutant (heparin-deficient) CHO cells (FGFR2 (bek) [7]) | mitogenic effect of aFGF on vascular endothelial cells [8] | binding to the extracellular domain of FGFR1 [9] | binding to aFGF (aFGF [10])
– | – | aFGF: aFGF was expressed in E. coli and purified by binding to a heparin-sepharose column | reduced slightly | could induce receptor dimerization regardless of the presence of exogenous heparin | could only induce the dimerization of FGFR2 when exogenous heparin was added; also recorded: can only induce FGFR dimerization in the presence of heparin | stimulation of FGFR2 autophosphorylation | Identical results | – | – | – | – | –
4-5 saccharide units | could not be detected | heparin | no significant effect upon the migration of sFGFR | – | – | – | – | failed to detect an interaction with significant affinity; also recorded: could not be detected; also recorded: does not itself interact with sFGFR | required for significant levels of aFGF-induced FGFR2 autophosphorylation; also recorded: the addition of heparin is required for aFGF to activate FGFR | potentiates the mitogenic effect of aFGF on vascular endothelial cells | binds to the extracellular domain of FGFR1 | relatively high affinity, in a multivalent fashion
